According to US12116593B2, “Method for producing adenohypophysis or precursor tissue thereof” (RIKEN, priority 2014, dated 2024):
Ends that are not written are not given here.

How the values were obtained:
Human ES cells (KhES-1) = experiment: Differentiation of human ES cell aggregates in serum-free suspension culture (SFEBq), fluorescent antibody method; type: cell-based
Source text: Human ES cells (KhES-1) were subjected to maintenance culture by a conventional method on MEF and used. To monitor differentiation induction into a hypothalamus tissue, KhES-1 wherein Venus cDNA is knocked-in into the gene of Rx which is a hypothalamus neuroepithelium marker was used. To differentiate human ES cells by serum-free suspension culture of aggregate (SFEBq method), human ES cells were dispersed to single cells by enzyme by the method of Nakano et al. (Cell Stem Cell, 2012), and reaggregated in a low cell adhesive V-bottom 96 well plate (SUMITOMO BAKELITE). 5,000 cells were seeded per well, and cultured in the following differentiation medium at 5% CO2, 37° C. gfCDM medium (growth-factor-free Chemically Defined Medium; Wataya et al., PNAS, 2008)+5% KSR (Invitrogen).
With the day of seeding as day 0 of differentiation culture, 20 μM Y-27632 (ROCK inhibitor; inhibitor of cell death during dispersion: Watanabe et al., Nature Biotechnology, 2007) was added from day 0 to day 3, and a half of the medium was exchanged with a differentiation medium free of Y-27632 on days 3 and 6 of culture. From day 3 to day 18 of culture, BMP4 (final concentration 5 nM) was added to the medium. On and after day 18, a half of the medium was exchanged every 3 days with a medium free of BMP4. […] On and after day 18, the oxygen partial pressure during the culture was set to 40%. Tissue differentiation was analyzed by a fluorescent antibody method.
The cell aggregates derived from human ES cells and simultaneously containing ventral hypothalamus tissue and epidermal placode were formed by the method of Example 1, culture was continued until day 27 or day 30 of culture under similar conditions, and the aggregates were analyzed by a fluorescent antibody method. In some culture, FGF2 (final concentration 20 ng/ml) was added to the medium from day 15 of culture.
By the method of Example 1, an influence of the presence or absence of BMP4 addition on the differentiation of cell aggregates was analyzed by a fluorescent antibody method.
By the method of Example 1, an influence of the presence or absence of the addition of hedgehog signal agonist SAG on the differentiation of cell aggregate was analyzed by a fluorescent antibody method.
In addition to the method of Example 8, differentiation of hypophysial placode reacted with Notch signal inhibitor DAPT (10 μM) from day 72 to day 82 of culture was analyzed by a fluorescent antibody method.

Tbx19 = Tbx19 expression in aggregates by qPCR; type: cell-based, human; settings: DAPT 10 μM day 65 to 74; aggregates on day 74
Method: According to the method of Example 5, hypophysial placode derived from human ES cells was formed, and cultured for a long term. DAPT (10 μM), a Notch signal inhibitor, was allowed to act thereon from day 65 to day 74 of culture, and the effect thereof was analyzed by a qPCR method.

[1] = test system: aggregates containing ACTH-producing cells; experiment: In vitro ACTH release from aggregates containing ACTH-producing cells, ELISA; type: cell-based, human; settings: 37° C.
Method: In vitro hormone secretory capacity was analyzed using the aggregates containing ACTH-producing cells produced by the method of Example 5. Using a 1.5 ml Eppendorf tube containing 250 μl of HBSS(−) containing 16 aggregates at day 80 of culture, the aggregates were incubated in the presence or absence of CRH (1 μg/ml) at 37° C. for 10 min. The concentration of ACTH in the culture supernatant was quantified by the ELISA method.
Furthermore, to examine feedback suppressive ability due to downstream hormone (glucocorticoid), 16 aggregates on day 80 of culture were preincubated in the presence or absence of hydrocortisone (20 μg/ml) at 37° C. for 3 hr, and the effect of release of ACTH after CRH treatment was analyzed.

mouse system = experiment: Exogenous BMP4 added to mouse system; type: cell-based
[2] = test system: aggregate containing GH-producing cells; experiment: In vitro GH release from aggregates containing GH-producing cells, ELISA; type: cell-based, human; settings: GRF 100 ng/ml, 37° C., 30 min; aggregates differentiated with hydrocortisone 1 μg/ml days 72-84; day 84
Method: In addition to the method of Example 10, in vitro hormone secretory capacity was analyzed using the aggregate containing GH-producing cells differentiated in a medium containing hydrocortisone (1 μg/ml) from days 72 to 84 of culture. Using a 1.5 ml Eppendorf tube containing 500 μl of HBSS containing 33 aggregates at day 84 of culture, the aggregates were incubated in the presence or absence of GRF (100 ng/ml) at 37° C. for 30 min. The concentration of GH in the culture supernatant was quantified by the ELISA method.
In addition to the method of Example 10, in vitro hormone secretory capacity was analyzed using the aggregate containing GH-producing cells differentiated in a medium containing dexamethasone (40 ng/ml) from days 70 to 84 of culture. Using a 1.5 ml Eppendorf tube containing 750 μl of a medium containing 30 aggregates at day 84 of culture, the aggregates were incubated in the presence of GRF (0.1, 1, 10 μg/ml) at 37° C. for 30 min. The concentration of GH in the culture supernatant was quantified by the ELISA method. In addition, in order to investigate a potential of somatostatin to suppress GH secretion, 18 aggregates at day 98 of culture were incubated in the presence or absence of somatostatin (100 ng/ml) at 37° C. for 90 min, and effects on GH release after GRF treatment were analyzed.

[3] = SAG 2 μM from day 6, with BMP4, day 24 and 27
[4] = BMP4 5 nM day 3-18 vs no addition, day 24

Compound: C[C@H](NC(=O)Cc1cc(F)cc(F)c1)C(=O)N[C@H](C(=O)OC(C)(C)C)c1ccccc1 [DAPT, N—[N-(3,5-difluorophenacetyl)-1-alanyl]-S-phenylglycine t-butyl ester]
- endocrine cells found in hypophysial placode after DAPT (Human ES cells (KhES-1); DAPT 10 μM day 72 to 82): LH-producing cells and FSH-producing cells were found in the hypophysial placode
- increase of Tbx19 expression vs non-treatment group (Tbx19): ≥ 8 times

Compound: CN[C@H]1CC[C@H](N(Cc2cccc(-c3ccncc3)c2)C(=O)c2sc3ccccc3c2Cl)CC1 [SAG, 3-Chloro-N-[trans-4-(methylamino)cyclohexyl]-N-[[3-(4-pyridinyl)phenyl]methyl]-benzo[b]thiophene-2-carboxamide]
- tissue differentiated under BMP4 non-addition conditions (Human ES cells (KhES-1); BMP4 not added, SAG 200 nM d6-25, day 24): FoxG1-positive and Nkx2.1-positive basal ganglion was differentiated
- formation of hypophysial placode on the surface (Human ES cells (KhES-1); [3]): hypophysial placode was formed on the surface
- tissue formed in the inside of the aggregates (Human ES cells (KhES-1); [3]): ventral hypothalamus tissue (Rx::Venus-positive, Chx10-negative, Nkx2.1-positive) was formed in the inside of the aggregates

Compound: C[C@]12CCC(=O)C=C1CC[C@@H]1[C@@H]2[C@@H](O)C[C@@]2(C)[C@H]1CC[C@]2(O)C(=O)CO [hydrocortisone]
- ACTH concentration after CRH treatment relative to preincubation without hydrocortisone ([1]; hydrocortisone 20 μg/ml preincubation 3 hr, day 80 aggregates): less than one-sevenths

Compound: BMP4: bone morphogenetic factor signal transduction pathway activating substance; a known cytokine
- formation of neuroepithelial tissue (hypothalamus) inside the cell aggregate (mouse system): acted inhibitingly on the formation of the neuroepithelial tissue (hypothalamus)
- formation of surface ectoderm (mouse system): promoted formation of surface ectoderm
- differentiation of neural tissue in the aggregate (Human ES cells (KhES-1); [4]): differentiation induction of neural tissue of hypothalamus
- formation of surface ectoderm (Human ES cells (KhES-1); [4]): active formation of surface ectoderm

Compound: CRH: hypothalamic stimulus inducing release of ACTH from ACTH-producing cells (SEEPPISLDLTFHLLREVLEMARAEQLAQQAHSNRKLMEII; ends and bridges not checked; UniProt P06850 154-194, looked up)
- ACTH concentration in culture supernatant vs incubation in absence of CRH ([1]; CRH 1 μg/ml, 10 min, 16 aggregates at day 80): not less than 5 fold

Compound: FGF2: known cytokine also called basic fibroblast growth factor (bFGF)
- increase of formation of hypophysial placode (Human ES cells (KhES-1); FGF2 20 ng/ml from day 15 of culture, day 27/30 aggregates): 30%

Compound: GRF: stimulus inducing release of GH from GH-producing cells (YADAIFTNSYRKVLGQLSARKLLQDIMSRQQGESNQERGARARL; ends and bridges not checked; UniProt P01286 32-75, looked up)
- GH concentration in culture supernatant vs incubation in absence of GRF [2]: not less than 6 fold
